Assay results taken from ChEMBL document CHEMBL1151058, “Synthesis and structure-activity relationships of novel THF 1-methylcarbapenems” (1997).
≈ marks a conversion by molar mass, not a printed value.

Experiments:
Type in all cases: functional
Enterobacter cloacae = test: In vitro minimum inhibitory concentration required against Enterobacter cloacae GC 2209 strain
Pseudomonas aeruginosa [1] = test: In vitro minimum inhibitory concentration required against Pseudomonas aeruginosa GC 1544 oprD- strain
Staphylococcus aureus [2] = test: In vitro minimum inhibitory concentration required against Staphylococcus aureus ATCC 29213 strain
Enterococcus faecium = test: In vitro minimum inhibitory concentration required against Enterococcus faecium GC 1182 strain
Citrobacter freundii = test: In vitro minimum inhibitory concentration required against Citrobacter freundii GC 2211 strain
Escherichia coli [3] = test: In vitro minimum inhibitory concentration required against Escherichia coli GC 1792 strain
[4] = system: Stenotrophomonas maltophilia; test: In vitro minimum inhibitory concentration required against Xanthomonas maltophilia GC 562 strain
[5] = system: Acinetobacter calcoaceticus; test: In vitro minimum inhibitory concentration required against Acinetobacter calcoaceticus GC 756 strain
Morganella morganii = test: In vitro minimum inhibitory concentration required against Morganella morganii GC 2213 strain
Staphylococcus aureus [6] = test: In vitro minimum inhibitory concentration required against Staphylococcus aureus GC 2220 MRSA strain
Enterococcus faecalis = test: In vitro minimum inhibitory concentration required against Enterococcus faecalis GC 842 strain
Escherichia coli [7] = test: In vitro minimum inhibitory concentration required against Escherichia coli GC 2205 strain
Escherichia coli [8] = test: In vitro minimum inhibitory concentration required against Escherichia coli ATCC 25922 strain
Pseudomonas aeruginosa [9] = test: In vitro minimum inhibitory concentration required against Pseudomonas aeruginosa ATCC 27853 strain
Sus scrofa = species: Sus scrofa; test: Relative hydrolysis was measured by hog renal dehydropeptidase (DHP).
Escherichia coli [10] = test: Effective single oral dose required for inhibition of Escherichia coli in mice
Escherichia coli [11] = test: Effective single subcutaneous dose required for inhibition of Escherichia coli in mice
[12] = Enterococcus faecium, read-out: MIC
[13] = Acinetobacter calcoaceticus, read-out: MIC
[14] = Enterococcus faecalis, read-out: MIC
[15] = Escherichia coli, po, read-out: ED50
[16] = Escherichia coli, sc, read-out: ED50

| Relative hydrolysis (Sus scrofa) | SMILES | MIC (Enterobacter cloacae) [µg/mL] | MIC (Pseudomonas aeruginosa [1]) [µg/mL] | MIC (Staphylococcus aureus [2]) [µg/mL] | MIC (Enterococcus faecium; [12]) [µg/mL] | MIC (Citrobacter freundii) [µg/mL] | MIC (Escherichia coli [3]) [µg/mL] | MIC [4] [µg/mL] | MIC [5, 13] [µg/mL] | MIC (Morganella morganii) [µg/mL] | MIC (Staphylococcus aureus [6]) [µg/mL] | MIC (Enterococcus faecalis; [14]) [µg/mL] | MIC (Escherichia coli [7]) [µg/mL] | MIC (Escherichia coli [8]) [µg/mL] | MIC (Pseudomonas aeruginosa [9]) [µg/mL] | also measured |
| --- | --- | --- | --- | --- | --- | --- | --- | --- | --- | --- | --- | --- | --- | --- | --- | --- |
| – | C[C@H]1C(S[C@H]2CO[C@H](CN)C2)=C(C(=O)O)N2C(=O)[C@H]([C@@H](C)O)C12 (some centres undefined) | ≤ 0.06 | 8 (≈ 23.4 µM) | ≤ 0.06 | > 128 | ≤ 0.06 | ≤ 0.06 | > 128 | 1 (≈ 2.92 µM) | 0.25 (≈ 0.73 µM) | 8 (≈ 23.4 µM) | 2 (≈ 5.84 µM) | ≤ 0.06 | ≤ 0.06 | 2 (≈ 5.84 µM) | – |
| – | C[C@H]1C(SC2COC(CN)C2)=C(C(=O)O)N2C(=O)[C@H]([C@@H](C)O)C12 (stereo in doubt; 3b) [listing 1 of 2 here] | – | – | – | – | – | – | – | – | – | – | – | – | – | – | ED50 (Escherichia coli [10]): 3.5 mg/kg; MIC (Enterococcus faecium): 128 µg/mL (≈ 374 µM); ED50 (Escherichia coli [11]): 0.28 mg/kg; MIC [5]: 2 µg/mL (≈ 5.84 µM); MIC (Enterococcus faecalis): 2 µg/mL (≈ 5.84 µM) |
| < 1 | C[C@H]1C(S[C@H]2COC[C@H]2CN)=C(C(=O)O)N2C(=O)[C@H]([C@@H](C)O)C12 (some centres undefined) | ≤ 0.06 | – | ≤ 0.06 | – | – | ≤ 0.06 | – | – | – | – | – | – | ≤ 0.06 | – | – |
| 39 | C[C@H]1C(S[C@@H]2COC[C@H]2CN)=C(C(=O)O)N2C(=O)[C@H]([C@@H](C)O)C12 (some centres undefined) | 0.25 (≈ 0.73 µM) | 64 (≈ 187 µM) | 0.12 (≈ 0.35 µM) | > 128 | 1 (≈ 2.92 µM) | 0.25 (≈ 0.73 µM) | > 128 | 16 (≈ 46.7 µM) | 4 (≈ 11.7 µM) | 16 (≈ 46.7 µM) | 8 (≈ 23.4 µM) | 0.25 (≈ 0.73 µM) | 0.25 (≈ 0.73 µM) | 32 (≈ 93.5 µM) | – |
| 37 | C[C@H]1C(S[C@H]2COC[C@@H]2CN)=C(C(=O)O)N2C(=O)[C@H]([C@@H](C)O)C12 (some centres undefined) | 0.5 (≈ 1.46 µM) | 64 (≈ 187 µM) | 0.12 (≈ 0.35 µM) | > 128 | 1 (≈ 2.92 µM) | 0.5 (≈ 1.46 µM) | > 128 | 8 (≈ 23.4 µM) | 4 (≈ 11.7 µM) | 16 (≈ 46.7 µM) | 8 (≈ 23.4 µM) | 0.5 (≈ 1.46 µM) | 0.5 (≈ 1.46 µM) | 16 (≈ 46.7 µM) | – |
| 10 | C[C@H]1C(SC2COC(CN)C2)=C(C(=O)O)N2C(=O)[C@H]([C@@H](C)O)C12 (stereo in doubt; 3b) [listing 2 of 2 here] | – | – | – | – | – | – | – | – | – | – | – | – | – | – | – |
| 100 | C[C@@H](O)[C@H]1C(=O)N2C(C(=O)O)=C(SCCNC=N)C[C@H]12 [IMIPENEM ANHYDROUS] | ≤ 0.06 | – | ≤ 0.06 | – | – | ≤ 0.06 | – | – | – | – | – | – | – | – | ED50 (Escherichia coli [10]; [15]): 79 mg/kg; ED50 (Escherichia coli [11]; [16]): 0.67 mg/kg |
| 8.5 | C[C@@H](O)[C@H]1C(=O)N2C(C(=O)O)=C(S[C@@H]3CCO[C@@H]3CN)[C@H](C)[C@H]12 | – | – | – | – | – | – | – | – | – | – | – | – | – | – | ED50 (Escherichia coli [10]; [15]): 3.8 mg/kg; ED50 (Escherichia coli [11]; [16]): 0.34 mg/kg |
| < 1 | C[C@H]1C(S[C@@H]2COC[C@@H]2CN)=C(C(=O)O)N2C(=O)[C@H]([C@@H](C)O)C12 (some centres undefined) | – | – | – | – | – | – | – | – | – | – | – | – | – | – | – |
| – | C[C@H]1C(SC2COC(CN)C2)=C(C(=O)O)N2C(=O)[C@H]([C@@H](C)O)C12 (stereo in doubt; 3a) [listing 1 of 2 here] | ≤ 0.06 | – | ≤ 0.06 | – | ≤ 0.06 | ≤ 0.06 | – | 1 (≈ 2.92 µM) | – | – | – | ≤ 0.06 | ≤ 0.06 | – | ED50 (Escherichia coli [10]; [15]): 3.7 mg/kg; ED50 (Escherichia coli [11]; [16]): 0.27 mg/kg |
| 19 | C[C@H]1C(SC2COC(CN)C2)=C(C(=O)O)N2C(=O)[C@H]([C@@H](C)O)C12 (stereo in doubt; 3a) [listing 2 of 2 here] | – | – | – | – | – | – | – | – | – | – | – | – | – | – | – |

| SMILES | Relative hydrolysis (Sus scrofa) | MIC (Enterobacter cloacae) [µg/mL] | MIC (Pseudomonas aeruginosa [1]) [µg/mL] | MIC (Staphylococcus aureus [2]) [µg/mL] | MIC (Enterococcus faecium; [12]) [µg/mL] | MIC (Citrobacter freundii) [µg/mL] | MIC (Escherichia coli [3]) [µg/mL] | MIC [4] [µg/mL] | MIC [5, 13] [µg/mL] | MIC (Morganella morganii) [µg/mL] | MIC (Staphylococcus aureus [6]) [µg/mL] | MIC (Enterococcus faecalis; [14]) [µg/mL] | MIC (Escherichia coli [7]) [µg/mL] | MIC (Escherichia coli [8]) [µg/mL] | MIC (Pseudomonas aeruginosa [9]) [µg/mL] | also measured |
| --- | --- | --- | --- | --- | --- | --- | --- | --- | --- | --- | --- | --- | --- | --- | --- | --- |
| C[C@H]1C(S[C@H]2CO[C@@H](CN)C2)=C(C(=O)O)N2C(=O)[C@H]([C@@H](C)O)C12 (some centres undefined) | 10 | ≤ 0.06 | 32 (≈ 93.5 µM) | ≤ 0.06 | > 128 | 0.12 (≈ 0.35 µM) | ≤ 0.06 | > 128 | 2 (≈ 5.84 µM) | 0.5 (≈ 1.46 µM) | 8 (≈ 23.4 µM) | 4 (≈ 11.7 µM) | ≤ 0.06 | ≤ 0.06 | 16 (≈ 46.7 µM) | – |
| C[C@H]1C(S[C@H]2CCO[C@@H]2CN)=C(C(=O)O)N2C(=O)[C@H]([C@@H](C)O)C12 (some centres undefined) | 18 | 0.5 (≈ 1.46 µM) | 32 (≈ 93.5 µM) | 0.06 (≈ 0.175 µM) | > 64 | 1 (≈ 2.92 µM) | 0.5 (≈ 1.46 µM) | > 64 | – | 2 (≈ 5.84 µM) | 4 (≈ 11.7 µM) | 8 (≈ 23.4 µM) | 0.25 (≈ 0.73 µM) | 0.5 (≈ 1.46 µM) | 16 (≈ 46.7 µM) | – |
| C[C@H]1C(S[C@H]2CCO[C@H]2CN)=C(C(=O)O)N2C(=O)[C@H]([C@@H](C)O)C12 (some centres undefined) | 4.5 | 0.25 (≈ 0.73 µM) | 16 (≈ 46.7 µM) | 0.12 (≈ 0.35 µM) | 128 (≈ 374 µM) | 0.5 (≈ 1.46 µM) | 0.5 (≈ 1.46 µM) | > 128 | 4 (≈ 11.7 µM) | 2 (≈ 5.84 µM) | 8 (≈ 23.4 µM) | 4 (≈ 11.7 µM) | 0.5 (≈ 1.46 µM) | 0.5 (≈ 1.46 µM) | 4 (≈ 11.7 µM) | – |
| C[C@H]1C(S[C@@H]2CO[C@H](CN)C2)=C(C(=O)O)N2C(=O)[C@H]([C@@H](C)O)C12 (some centres undefined) | 7.3 | ≤ 0.06 | 16 (≈ 46.7 µM) | ≤ 0.06 | 128 (≈ 374 µM) | 0.12 (≈ 0.35 µM) | ≤ 0.06 | > 128 | 2 (≈ 5.84 µM) | 0.5 (≈ 1.46 µM) | 4 (≈ 11.7 µM) | 4 (≈ 11.7 µM) | 0.12 (≈ 0.35 µM) | ≤ 0.06 | 8 (≈ 23.4 µM) | – |
| C[C@@H](O)[C@H]1C(=O)N2C(C(=O)O)=C(S[C@@H]3CN[C@H](C(=O)N(C)C)C3)[C@H](C)[C@H]12 [MEROPENEM] | 28 | ≤ 0.06 | 4 (≈ 10.4 µM) | ≤ 0.06 | > 128 | ≤ 0.06 | ≤ 0.06 | > 128 | 0.5 (≈ 1.3 µM) | ≤ 0.06 | 8 (≈ 20.9 µM) | 2 (≈ 5.22 µM) | ≤ 0.06 | ≤ 0.06 | 0.25 (≈ 0.652 µM) | – |
